For experiment [1], the system named is Cabbage Looper (Trichoplusia ni, TRIPNI). Briefly: Bioassays on Cabbage Looper (CL), 128-well diet tray assay. Format: in vivo. Particulars: Trichoplusia ni. On the procedure:
(§1) Certain molecules disclosed in this document were tested against BAW and CL using procedures described in the following examples. In the reporting of the results, the “BAW & CL Rating Table” was used (See Table Section).
Bioassays on CL were conducted using a 128-well diet tray assay. One to five second instar CL larvae were placed in each well (3 mL) of the diet tray that had been previously filled with 1 mL of artificial diet to which 50 μg/cm^2 of the test molecule (dissolved in 50 μL of 90:10 acetone-water mixture) had been applied (to each of eight wells) and then allowed to dry. Trays were covered with a clear self-adhesive cover, vented to allow gas exchange, and held at 25° C., 14:10 light-dark for five to seven days. Percent mortality was recorded for the larvae in each well; activity in the eight wells was then averaged. The results are indicated in the table entitled “Table ABC: Biological Results” (See Table Section).

For experiment [2], the system named is Beet Armyworm (Spodoptera exigua, LAPHEG). The experiment is described as follows: Bioassays on Beet Armyworm (BAW), 128-well diet tray assay. The class given is in vivo. Particulars: Spodoptera exigua. On the procedure: as §1
Bioassays on BAW were conducted using a 128-well diet tray assay. One to five second instar BAW larvae were placed in each well (3 mL) of the diet tray that had been previously filled with 1 mL of artificial diet to which 50 μg/cm^2 of the test molecule (dissolved in 50 μL of 90:10 acetone-water mixture) had been applied (to each of eight wells) and then allowed to dry. Trays were covered with a clear self-adhesive cover, vented to allow gas exchange, and held at 25° C., 14:10 light-dark for five to seven days. Percent mortality was recorded for the larvae in each well; activity in the eight wells was then averaged. The results are indicated in the table entitled “Table ABC: Biological Results” (See Table Section).

The mark [3] stands for this setting: Table ABC: Biological Results, species CL, read-out: CL.
Setting [4] is: Table ABC: Biological Results, species BAW, read-out: BAW.
[5] abbreviates: Cabbage Looper, Table ABC / ABC-DP rating, read-out: CL rating.
[6] abbreviates: Cabbage Looper, rating class, read-out: CL.
[7] abbreviates: Beet Armyworm, rating class, read-out: BAW.

19 compounds from patent US20250228239A1, “MOLECULES HAVING PESTICIDAL UTILITY, AND INTERMEDIATES, COMPOSITIONS, AND PROCESSES, RELATED THERETO” (priority 2024, published 2025) can be followed below.

Where two headings read alike, the source gives them in different places.

`O=C(Nc1cc(F)c(NC(=O)C(Cl)(Cl)Cl)c(F)c1)c1cc(NC(=O)[C@H]2[C@H](c3ccc(Cl)c(Cl)c3)C2(Cl)Cl)ccc1Cl` (relative stereo) [F1146, trans-2-Chloro-5-(2,2-dichloro-3-(3,4-dichlorophenyl)cyclopropane-1-carboxamido)-N-(3,5-difluoro-4-(2,2,2-trichloroacetamido)phenyl)benzamide]: the pest or weed control at 50 µg/cm2 in experiment [1] (setting [3]) and in experiment [2] (setting [4]) was 50 to 100% throughout.
For `CC(NNC(=O)c1cc(NC(=O)[C@H]2[C@H](c3cc(Cl)cc(Cl)c3)C2(Cl)Cl)ccc1Cl)c1ccccc1` (relative stereo) [F2548, trans-2,2-Dichloro-N-(4-chloro-3-(2-(1-phenylethyl)hydrazine-1-carbonyl)phenyl)-3-(3,5-dichlorophenyl)cyclopropane-1-carboxamide], the pest or weed control at 50 µg/cm2 in experiment [1] (setting [5]) fell in the range of 50 to 100%; in experiment [2] (Beet Armyworm, Table ABC / ABC-DP rating, read-out: BAW rating), 50 to 100%.
As for `CC(=O)Nc1c(F)ccc(NC(=O)c2cc(NC(=O)[C@H]3[C@H](c4ccc(Cl)c(Cl)c4)C3(Cl)Cl)ccc2Cl)c1F` [F1083, N-(3-acetamido-2,4-difluorophenyl)-2-chloro-5-((1R,3R)-2,2-dichloro-3-(3,4-dichlorophenyl)cyclopropane-1-carboxamido)benzamide], the pest or weed control at 50 µg/cm2 in experiment [1] (setting [3]) and in experiment [2] (setting [4]) was 50 to 100% in each case.
Take `Nc1ccc(F)c(NC(=O)c2cc(NC(=O)[C@H]3[C@H](c4cc(Cl)cc(Cl)c4)C3(Cl)Cl)cc(F)c2Cl)c1F` [F1336, N-(3-Amino-2,6-difluorophenyl)-2-chloro-5-((1R,3R)-2,2-dichloro-3-(3,5-dichlorophenyl)cyclopropane-1-carboxamido)-3-fluorobenzamide]: the pest or weed control at 50 µg/cm2 in experiment [1] (setting [3]) and in experiment [2] (setting [4]) was 50 to 100% in each case.
Turning to `O=C(Nc1ccc(F)c(NC(=O)C2CCCO2)c1F)c1cc(NC(=O)[C@H]2[C@H](c3cc(Cl)c(Cl)c(Cl)c3)C2(Cl)Cl)ccc1Cl` (stereo partly drawn) [F1647, N-(3-(2-Chloro-5-((1R,3R)-2,2-dichloro-3-(3,4,5-trichlorophenyl)cyclopropane-1-carboxamido)benzamido)-2,6-difluorophenyl)tetrahydrofuran-2-carboxamide], the pest or weed control at 50 µg/cm2 in experiment [1] (setting [6]) and in experiment [2] (setting [7]) was 50 to 100% in each case.
Regarding `Nc1c(F)ccc(NC(=O)c2cc(NC(=O)[C@H]3[C@H](c4ccc(Cl)c(Cl)c4)C3(Cl)Cl)ccc2F)c1F` [F1459, N-(3-Amino-2,4-difluorophenyl)-5-((1R,3R)-2,2-dichloro-3-(3,4-dichlorophenyl)cyclopropane-1-carboxamido)-2-fluorobenzamide], the pest or weed control at 50 µg/cm2 in experiment [1] (setting [6]) and in experiment [2] (setting [7]) was 50 to 100% each time.
In the case of `O=C(Nc1c(F)ccc(NC(=O)c2cc(NC(=O)[C@H]3[C@H](c4ccc(F)c(C(F)(F)F)c4)C3(Cl)Cl)ccc2Cl)c1F)c1ccccc1` [F1179, N-(3-Benzamido-2,4-difluorophenyl)-2-chloro-5-((1R,3R)-2,2-dichloro-3-(4-fluoro-3-(trifluoromethyl)phenyl)cyclopropane-1-carboxamido)benzamide], the pest or weed control at 50 µg/cm2 in experiment [1] (setting [3]) and in experiment [2] (setting [4]) was 50 to 100% throughout.
Take `Cc1cc(NC(=O)[C@H]2[C@H](c3cc(Cl)c(Cl)c(Cl)c3)C2(Cl)Cl)cc(C(=O)Nc2ccc(F)c(NC(=O)C(F)(F)F)c2F)c1Cl` [F1487, 2-Chloro-5-((1R,3R)-2,2-dichloro-3-(3,4,5-trichlorophenyl)cyclopropane-1-carboxamido)-N-(2,4-difluoro-3-(2,2,2-trifluoroacetamido)phenyl)-3-methylbenzamide]: the pest or weed control at 50 µg/cm2 in experiment [1] (setting [6]) and in experiment [2] (setting [7]) was 50 to 100% throughout.
For the compound `CC(C)(C)OC(=O)N(C(=O)OC(C)(C)C)c1c(F)ccc(NC(=O)c2c(Cl)ccc(NC(=O)[C@H]3[C@H](c4ccc(F)c(Cl)c4)C3(Cl)Cl)c2Cl)c1F` (relative stereo) [F1107, trans-tert-Butyl-N-tert-butoxycarbonyl-N-[3-[[2,6-dichloro-3-[[2,2-dichloro-3-(3-chloro-4-fluorophenyl)cyclopropanecarbonyl]amino]benzoyl]amino]-2,6-difluoro-phenyl]carbamate], the pest or weed control at 50 µg/cm2 in experiment [1] (setting [3]) fell in the range of 0 to 50%.
In the case of `Cc1c(F)c(NC(=O)c2cc(NC(=O)[C@H]3[C@H](c4ccc(F)c(C(F)(F)F)c4)C3(Cl)Cl)ccc2Cl)cc(N(C(=O)OC(C)(C)C)C(=O)OC(C)(C)C)c1F` [F1670, tert-Butyl N-tert-butoxycarbonyl-N-[5-[[2-chloro-5-[[(1R,3R)-2,2-dichloro-3-[4-fluoro-3-(trifluoromethyl)phenyl]cyclopropanecarbonyl]amino]benzoyl]amino]-2,4-difluoro-3-methyl-phenyl]carbamate], the pest or weed control at 50 µg/cm2 in experiment [2] (setting [7]) is 0 to 50%.
Take `CCOC(=O)C(F)(F)CNC(=O)c1cc(NC(=O)[C@H]2[C@H](c3cc(Cl)cc(Cl)c3)C2(Cl)Cl)ccc1Cl` (relative stereo) [F2076, trans-Ethyl 3-(2-chloro-5-(2,2-dichloro-3-(3,5-dichlorophenyl)cyclopropane-1-carboxamido)benzamido)-2,2-difluoropropanoate]: the pest or weed control at 50 µg/cm2 in experiment [1] (setting [5]) is 50 to 100%.
On to `CC(=O)Oc1c(F)ccc(NC(=O)c2cc(NC(=O)[C@H]3[C@H](c4cc(Cl)cc(Cl)c4)C3(Cl)Cl)ccc2Cl)c1F` (relative stereo) [F1193, trans-3-(2-Chloro-5-(2,2-dichloro-3-(3,5-dichlorophenyl)cyclopropane-1-carboxamido)benzamido)-2,6-difluorophenyl acetate], for which the pest or weed control at 50 µg/cm2 in experiment [1] (setting [3]) was 50 to 100%.
Regarding `CC(C)(C)OC(=O)N(C(=O)OC(C)(C)C)c1c(F)ccc(NC(=O)c2cc(NC(=O)[C@H]3[C@H](c4ccc(F)c(Cl)c4)C3(Cl)Cl)cc(F)c2Cl)c1F` (relative stereo) [F1155, trans-tert-Butyl-N-tert-butoxycarbonyl-N-[3-[[2-chloro-5-[[2,2-dichloro-3-(3-chloro-4-fluorophenyl)cyclopropanecarbonyl]amino]-3-fluorobenzoyl]amino]-2,6-difluorophenyl]carbamate], the pest or weed control at 50 µg/cm2 in experiment [2] (setting [4]) fell in the range of 50 to 100%.
Still for that read-out and setting: as for `COc1c(Cl)cc(NC(=O)[C@H]2[C@H](c3ccc(F)c(Cl)c3)C2(Cl)Cl)cc1C(=O)Nc1ccc(F)c(N(C(=O)OC(C)(C)C)C(=O)OC(C)(C)C)c1F` (relative stereo) [F1237, trans-tert-Butyl-N-tert-butoxycarbonyl-N-[3-[[3-chloro-5-[[2,2-dichloro-3-(3-chloro-4-fluorophenyl)cyclopropanecarbonyl]amino]-2-methoxybenzoyl]amino]-2,6-difluorophenyl]carbamate], the figure is 0 to 50%; as for `Cc1cc(NC(=O)[C@H]2[C@H](c3ccc(F)c(Cl)c3)C2(Cl)Cl)cc(C(=O)Nc2ccc(F)c(N(C(=O)OC(C)(C)C)C(=O)OC(C)(C)C)c2F)c1F` (relative stereo) [F1138, trans-tert-Butyl-N-tert-butoxycarbonyl-N-[3-[[5-[[2,2-dichloro-3-(3-chloro-4-fluorophenyl)cyclopropanecarbonyl]amino]-2-fluoro-3-methylbenzoyl]amino]-2,6-difluorophenyl]carbamate], 0 to 50%.
As for `CC(C)(C)OC(=O)N(C(=O)OC(C)(C)C)c1c(F)ccc(NC(=O)c2cc(NC(=O)[C@H]3[C@H](c4ccc(F)c(Cl)c4)C3(Cl)Cl)cc(Cl)c2F)c1F` (relative stereo) [F1198, trans-tert-Butyl-N-tert-butoxycarbonyl-N-[3-[[3-chloro-5-[[2,2-dichloro-3-(3-chloro-4-fluorophenyl)cyclopropanecarbonyl]amino]-2-fluorobenzoyl]amino]-2,6-difluorophenyl]carbamate], the pest or weed control at 50 µg/cm2 in experiment [1] (setting [3]) lay in the range of 0 to 50%.
The same measure, in the same setting: the figure for `COc1c(F)cc(NC(=O)[C@H]2[C@H](c3ccc(F)c(Cl)c3)C2(Cl)Cl)cc1C(=O)Nc1ccccc1` (relative stereo) [F1213, trans-5-(2,2-Dichloro-3-(3-chloro-4-fluorophenyl)cyclopropane-1-carboxamido)-3-fluoro-2-methoxy-N-phenylbenzamide] is 50 to 100%; for `CC(=O)OCCN(C(=O)OC(C)(C)C)c1ccc(NC(=O)c2cc(NC(=O)[C@H]3[C@H](c4cc(Cl)cc(Cl)c4)C3(Cl)Cl)ccc2Cl)c(C)c1` (relative stereo) [F1129, trans-2-((tert-butoxycarbonyl)(4-(2-chloro-5-(2,2-dichloro-3-(3,5-dichlorophenyl)cyclopropane-1-carboxamido)benzamido)-3-methylphenyl)amino)ethyl acetate] it is 50 to 100%; for `O=C(Nc1cc(Cl)c(O)c(Cl)c1)c1cc(NC(=O)[C@H]2[C@H](c3cc(Cl)cc(Cl)c3)C2(Cl)Cl)ccc1Cl` (relative stereo) [F1360, trans-2-Chloro-5-(2,2-dichloro-3-(3,5-dichlorophenyl)cyclopropane-1-carboxamido)-N-(3,5-dichloro-4-hydroxyphenyl)benzamide] it is 50 to 100%.
